Entries after “also recorded” stand apart in the source; their conditions may differ.
Key:
[1] = tested on: 4T1 lung metastasis; test: Metastatic lung cancer model, nodule count and size; type: in vivo, female Balb/c mice; settings: 5 mg/kg DOX equivalent ×5, day 23
[2] = Maximal tolerated dose, single dose; settings: single i.v. dose, 10 days
Experimental: (§1) Toxicity studies. […] For blood chemistry study, the blood was collected through cardiac puncture 15 days p.i. and kept on ice for 30 min for coagulation. […] The organs and tissues were also collected, fixed in formalin (10%) and embedded in paraffin before H&E staining and pathological evaluation. […] The mice were sacrificed on 10 days p.i. and the blood were extracted via cardiac puncture.

[3] = Renal clearance (urine DOX by HPLC, gold by ICP-MS); type: in vivo, female CD-1 mice; settings: 24 hr p.i., intravenous
Excerpt: (§2) Clearance, physiological stability, and elimination. […] The DOX concentrations were quantified based on fluorescence analysis.

[4] = tested on: MCF-7 human breast cancer xenograft; test: Tumor targeting efficiency; type: in vivo, nude mice; settings: 12 hr p.i., DOX 5 mg/kg i.v.
Experimental: Tumor targeting, penetration and antitumor efficacy studies. […] The tumors were collected and homogenized and DOX concentrations were measured using the same approaches described in the biodistribution studies. The ex vivo tumor fluorescence imaging was acquired using a Carestream Molecular imaging system In-Vivo FX PRO with an excitation filter of 470±10 nm and an emission filter of 600±20 nm. […] The mice were sacrificed 12 hr and 3 days p.i. respectively. Tumor tissues were fixed, embedded in paraffin and sliced before haematoxylin and eosin (H&E), and silver staining. To enable visualization of AuNPs in the tumor issues, dewaxed tumor slides were incubated with silver nitrate (0.1 M) and hydroquinone (2 mM) for 15 min at room temperature, followed by washing with pure water and haemotoxylin and eosin staining (Du et al., 2017). […] The length (L) and width (W) of the tumors were measured with a digital calliper and the volume (V) was calculated by the equation V=½ LW^2. The body weights were also monitored during the treatment. […] For survival study, the tumor bearing mice were treated same with therapeutic study, and tumor sizes were monitored. […] To establish the metastatic lung cancer model, female Balb/c mice were implanted with 4T1 mammary cancer cells subcutaneously and the cancer cells would be readily developed as lung metastatic nodules after a week.

[5] = DOX and AuNP biodistribution in organs and tissues; type: in vivo, CD-1 mice
Excerpt: as §2

[6] = Pharmacokinetic study, DOX in blood
Experimental: Clearance, physiological stability, and elimination. […] Since DOX is highly fluorescent, the fluorescence signals were collected at 610 nm with excitation at 470 nm. […] Extraction was performed at −20° C. for overnight and supernatant was obtained after centrifugation at 15,000 g for 10 min. The DOX concentrations were quantified based on fluorescence analysis. […] For pharmacokinetic study, the DOX concentrations in blood were analysed using HPLC with the same approach described above.

[7] = Acute toxicity, successive treatment (body weight, blood chemistry, H&E)
Experimental: as §1

[8] = equivalent DOX 5 mg/kg ×5, within 10 days

In the case of `COc1cccc2c1C(=O)c1c(O)c3c(c(O)c1C2=O)C[C@@](O)(C(=O)CO)C[C@@H]3O[C@H]1C[C@H](N)[C@H](O)[C@H](C)O1` [free DOX, doxorubicin], the “count of metastatic tumor nodules in the lungs (per mouse)” value [1] is reported as 62.6±30.5, the “size of metastatic lung tumor nodules” value [1] is reported as 1.64±0.77 mm and the “maximal tolerance dose (MTD, in terms of DOX)” value [2] is reported as 10 mg/kg body weight. For the same molecule, the “DOX-based renal clearance (renally cleared DOX)” value [3] was 6.1±1.1 % ID, the “tumor targeting of DOX” value [4] was 0.79±0.22 % ID/g and the “DOX distribution in the kidneys” value ([5]; 1 hr p.i.) was 11.4 % ID/g. The “DOX accumulation in the liver” value ([5]; 24 h p.i.) was “even lower accumulation in the liver”, the “decrease of muscle DOX from 1 to 24 h” value ([5]; mouse, in vivo) was 19.7% and the “24-h area under curve (AUC)” value ([6]; DOX in blood) was 2.2 % ID·h/g. The “distribution half-life t1/2a” value ([6]; plasma, CD-1 mice) was 4.8 min, the “hepatocyte anisocaryosis and anisocytosis (H&E liver)” value ([7]; 15 days p.i.) was “increase in hepatocyte anisocaryosis and anisocytosis; also recorded: evident” and the “hepatocyte nuclei size distribution width” value ([7]; 15 days p.i.) was “significant higher distribution width”. For the same molecule, the “pathological signs in heart, kidney, spleen and muscle” value ([7]; 15 days p.i.) was “no observable pathological signs”, the “blood chemistry, liver function (ALT, AST, ALKP, albumin)” value ([7]; 15 days p.i., 5 mg/kg ×5) was “increased alanine aminotransferase (ALT) and aspartate aminotransferase (AST) levels and decreased alkaline phosphatase (ALKP) and albumin levels in serum” and the “blood chemistry, renal function (BUN, CREA)” value ([7]; 15 days p.i., 5 mg/kg ×5) was “increased blood urea nitrogen (BUN) and creatinine (CREA) levels in serum”. It also gave a body weight loss [7, 8] of ~10% and a mortality [7, 8] of 25%.

Reference: patent US20200078471A1, “RENAL CLEARABLE DRUG DELIVERING NANOPARTICLES AND METHODS OF USE THEREFOR” (priority 2018, published 2020)
